According to US20260256792A1, “TREATMENT OF CHRONIC SPONTANEOUS URTICARIA BY ADMINISTERING (R)-2-[3-[4-AMINO-3-(2-FLUORO-4-PHENOXY-PHENYL)PYRAZOLO[3,4-D]PYRIMIDIN-1-YL]PIPERIDINE-1-CARBONYL]-4-METHYL-4-[4-(OXETAN-3-YL)PIPERAZIN-1-YL]PENT-2-ENENITRILE” (priority 2023, published 2026):

Test system: angioedema in CSU patients
Assay: Phase 2 CSU study: angioedema activity score over 7 days (AAS7)
Format: in vivo, human
Design: AAS7, Median / AAS7 Change from baseline, Median: scale not given here
Text: The study comprises a 12 week, randomized, double-blind, placebo-controlled, multi-center, dose-ranging efficacy and safety phase, followed by a 40 week open label extension (OLE) phase (see FIG. 1). The study consists of three phases and an optional OLE phase. […] The weekly angioedema activity score (AAS7) was proposed as a tertiary endpoint. […] Patients were to complete the AAS using the e-diary. The e-diary was to be used once daily on the same time of each day recording of participant's answers to the angioedema activity score over 7 days (AAS7) questionnaire.

[1] = Omalizumab-Naïve Population, 400 mg TID, Week 7
[2] = Omalizumab-Naïve Population, 400 mg TID, Week 8
[3] = Omalizumab-Naïve Population, 400 mg TID, Week 9
[4] = Omalizumab-Naïve Population, 400 mg TID, Week 10
[5] = Omalizumab-Naïve Population, 400 mg TID, Week 11
[6] = Omalizumab-Naïve Population, 400 mg TID, Week 12
[7] = Patients with Prior Omalizumab Use, 400 mg BID, Week 1
[8] = Patients with Prior Omalizumab Use, 400 mg BID, Week 2
[9] = Patients with Prior Omalizumab Use, 400 mg BID, Week 3
[10] = Patients with Prior Omalizumab Use, 400 mg BID, Week 4
[11] = Patients with Prior Omalizumab Use, 400 mg BID, Week 5
[12] = Patients with Prior Omalizumab Use, 400 mg BID, Week 6
[13] = Patients with Prior Omalizumab Use, 400 mg BID, Week 7
[14] = Patients with Prior Omalizumab Use, 400 mg BID, Week 8
[15] = Patients with Prior Omalizumab Use, 400 mg QPM, Week 1
[16] = Patients with Prior Omalizumab Use, 400 mg QPM, Week 2
[17] = Patients with Prior Omalizumab Use, 400 mg QPM, Week 3
[18] = Patients with Prior Omalizumab Use, 400 mg QPM, Week 4
[19] = Patients with Prior Omalizumab Use, 400 mg QPM, Week 5
[20] = Patients with Prior Omalizumab Use, 400 mg QPM, Week 6
[21] = Patients with Prior Omalizumab Use, 400 mg QPM, Week 7
[22] = Patients with Prior Omalizumab Use, 400 mg QPM, Week 8

## CC(C)(C=C(C#N)C(=O)N1CCC[C@@H](n2nc(-c3ccc(Oc4ccccc4)cc3F)c3c(N)ncnc32)C1)N1CCN(C2COC2)CC1 [rilzabrutinib, (R)-2-[3-[4-amino-3-(2-fluoro-4-phenoxy-phenyl)pyrazolo[3,4-d]pyrimidin-1-yl]piperidine-1-carbonyl]-4-methyl-4-[4-(oxetan-3-yl)piperazin-1-yl]pent-2-enenitrile]
[1]
  AAS7 Change from baseline, Median: −27.00
  AAS7 Percent change from baseline, Mean (SD): −66.41 (55.40) %
  AAS7 Percent change from baseline, Median: −93.41%
[2]
  AAS7 Change from baseline, Mean (SD): −33.38 (24.94)
  AAS7 Change from baseline, Median: −25.00
  AAS7 Percent change from baseline, Mean (SD): −69.90 (38.13) %
  AAS7 Percent change from baseline, Median: −85.88%
[3]
  AAS7, Median: 1.40
  AAS7 Change from baseline, Mean (SD): −38.54 (26.30)
  AAS7 Change from baseline, Median: −39.00
  AAS7 Percent change from baseline, Mean (SD): −78.96 (34.18) %
  AAS7 Percent change from baseline, Median: −98.13%
[4]
  AAS7, Median: 2.00
  AAS7 Change from baseline, Mean (SD): −39.26 (24.84)
  AAS7 Change from baseline, Median: −40.00
  AAS7 Percent change from baseline, Mean (SD): −82.44 (32.63) %
  AAS7 Percent change from baseline, Median: −96.61%
[5]
  AAS7, Median: 3.00
  AAS7 Change from baseline, Mean (SD): −36.30 (27.49)
  AAS7 Change from baseline, Median: −31.00
  AAS7 Percent change from baseline, Mean (SD): −76.08 (33.07) %
  AAS7 Percent change from baseline, Median: −96.00%
[6]
  AAS7, Median: 0.00
  AAS7 Change from baseline, Mean (SD): −37.55 (25.86)
  AAS7 Change from baseline, Median: −31.00
  AAS7 Percent change from baseline, Mean (SD): −82.72 (30.20) %
  AAS7 Percent change from baseline, Median: −100.00%
[7]
  AAS7, Mean (SD): 0.00 (0.00)
  AAS7, Median: 0.00
  AAS7 Change from baseline, Mean (SD): −39.50 (3.54)
  AAS7 Change from baseline, Median: −39.50
  AAS7 Percent change from baseline, Mean (SD): −100.00 (0.00) %
  AAS7 Percent change from baseline, Median: −100.00%
[8]
  AAS7, Mean (SD): 0.00 (0.00)
  AAS7, Median: 0.00
  AAS7 Change from baseline, Mean (SD): −39.50 (3.54)
  AAS7 Change from baseline, Median: −39.50
  AAS7 Percent change from baseline, Mean (SD): −100.00 (0.00) %
  AAS7 Percent change from baseline, Median: −100.00%
[9]
  AAS7, Mean (SD): 0.00 (0.00)
  AAS7, Median: 0.00
  AAS7 Change from baseline, Mean (SD): −39.50 (3.54)
  AAS7 Change from baseline, Median: −39.50
  AAS7 Percent change from baseline, Mean (SD): −100.00 (0.00) %
  AAS7 Percent change from baseline, Median: −100.00%
[10]
  AAS7, Mean (SD): 0.00 (0.00)
  AAS7, Median: 0.00
  AAS7 Change from baseline, Mean (SD): −39.50 (3.54)
  AAS7 Change from baseline, Median: −39.50
  AAS7 Percent change from baseline, Mean (SD): −100.00 (0.00) %
  AAS7 Percent change from baseline, Median: −100.00%
[11]
  AAS7, Mean (SD): 0.00 (0.00)
  AAS7, Median: 0.00
  AAS7 Change from baseline, Mean (SD): −39.50 (3.54)
  AAS7 Change from baseline, Median: −39.50
  AAS7 Percent change from baseline, Mean (SD): −100.00 (0.00) %
  AAS7 Percent change from baseline, Median: −100.00%
[12]
  AAS7, Mean (SD): 0.00 (0.00)
  AAS7, Median: 0.00
  AAS7 Change from baseline, Mean (SD): −39.50 (3.54)
  AAS7 Change from baseline, Median: −39.50
  AAS7 Percent change from baseline, Mean (SD): −100.00 (0.00) %
  AAS7 Percent change from baseline, Median: −100.00%
[13]
  AAS7, Mean (SD): 1.00 (1.41)
  AAS7, Median: 1.00
  AAS7 Change from baseline, Mean (SD): −38.50 (2.12)
  AAS7 Change from baseline, Median: −38.50
  AAS7 Percent change from baseline, Mean (SD): −97.62 (3.37) %
  AAS7 Percent change from baseline, Median: −97.62%
[14]
  AAS7, Mean (SD): 0.00 (0.00)
  AAS7, Median: 0.00
  AAS7 Change from baseline, Mean (SD): −39.50 (3.54)
  AAS7 Change from baseline, Median: −39.50
[15]
  AAS7, Mean (SD): 27.00 (NC)
  AAS7, Median: 27.00
  AAS7 Change from baseline, Mean (SD): 41.00 (NC)
  AAS7 Change from baseline, Median: −41.00
  AAS7 Percent change from baseline, Mean (SD): −60.29 (NC) %
  AAS7 Percent change from baseline, Median: −60.29%
[16]
  AAS7, Mean (SD): 25.00 (NC)
  AAS7, Median: 25.00
  AAS7 Change from baseline, Mean (SD): −43.00 (NC)
  AAS7 Change from baseline, Median: −43.00
  AAS7 Percent change from baseline, Mean (SD): −63.24 (NC) %
  AAS7 Percent change from baseline, Median: −63.24%
[17]
  AAS7, Mean (SD): 29.00 (NC)
  AAS7, Median: 29.00
  AAS7 Change from baseline, Mean (SD): −39.00 (NC)
  AAS7 Change from baseline, Median: −39.00
  AAS7 Percent change from baseline, Mean (SD): −57.35 (NC) %
  AAS7 Percent change from baseline, Median: −57.35%
[18]
  AAS7, Mean (SD): 26.00 (NC)
  AAS7, Median: 26.00
  AAS7 Change from baseline, Mean (SD): −42.00 (NC)
  AAS7 Change from baseline, Median: −42.00
  AAS7 Percent change from baseline, Mean (SD): −61.76 (NC) %
  AAS7 Percent change from baseline, Median: −61.76%
[19]
  AAS7, Mean (SD): 37.00 (NC)
  AAS7, Median: 37.00
  AAS7 Change from baseline, Mean (SD): −31.00 (NC)
  AAS7 Change from baseline, Median: −31.00
  AAS7 Percent change from baseline, Mean (SD): −45.59 (NC) %
  AAS7 Percent change from baseline, Median: −45.59%
[20]
  AAS7, Mean (SD): 21.00 (NC)
  AAS7, Median: 21.00
  AAS7 Change from baseline, Mean (SD): −47.00 (NC)
  AAS7 Change from baseline, Median: −47.00
  AAS7 Percent change from baseline, Mean (SD): −69.12 (NC) %
  AAS7 Percent change from baseline, Median: −69.12%
[21]
  AAS7, Mean (SD): 12.00 (NC)
  AAS7, Median: 12.00
  AAS7 Change from baseline, Mean (SD): −56.00 (NC)
  AAS7 Change from baseline, Median: −56.00
  AAS7 Percent change from baseline, Mean (SD): −82.35 (NC) %
  AAS7 Percent change from baseline, Median: −82.35%
[22]
  AAS7, Mean (SD): 18.00 (NC)
  AAS7, Median: 18.00
  AAS7 Change from baseline, Mean (SD): −50.00 (NC)
